Measured values from US5482948A, “Pyridyl derivatives and pharmaceutical compositions comprising these compounds” (Dr. Karl Thomae GmbH, priority 1991, dated 1996).

How the values were obtained:
Thromboxane = target: T1, Thromboxane (Homo sapiens, UniProt P21731); experiment: Thromboxane-antagonistic activity (displacement of 3H-labelled ligand on human platelets); assay type: binding; conditions: human platelet suspension, 60 minutes at ambient temperature
T1 construct: endogenous in cells; host or cells: human platelets (platelet-rich plasma passed through Sepharose 2B)
T1 sequence (P21731 1-343): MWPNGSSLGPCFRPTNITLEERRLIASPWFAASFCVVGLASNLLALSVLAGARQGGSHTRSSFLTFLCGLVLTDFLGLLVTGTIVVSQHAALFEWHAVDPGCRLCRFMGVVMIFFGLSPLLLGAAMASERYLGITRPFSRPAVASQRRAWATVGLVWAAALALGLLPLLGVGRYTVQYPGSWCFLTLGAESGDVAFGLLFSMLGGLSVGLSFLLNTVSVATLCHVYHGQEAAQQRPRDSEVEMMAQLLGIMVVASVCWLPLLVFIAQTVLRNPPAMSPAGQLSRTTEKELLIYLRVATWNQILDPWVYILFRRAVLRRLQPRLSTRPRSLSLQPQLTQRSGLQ
Method: Thromboxane-antagonistic Activity
Venous human blood is anti-coagulated with 13 mM Na3 citrate and centrifuged for 10 minutes at 170×g. The supernatant platelet-rich plasma is passed through a Sepharose 2B column in order to remove the plasma proteins. Aliquots of the platelet suspension obtained are incubated with the test substance, the ligand (^3 H-labelled) and a marker (^14 C-labelled) for 60 minutes at ambient temperature and then centrifuged for 20 seconds at 10,000×g. The supernatant is removed and the pellet is dissolved in NaOH. The ^3 H activity in the supernatant corresponds to the free ligand, ^14 C gives the concentration of the marker. ^3 H in the pellet corresponds to the bound ligand whilst ^14 C is used to correct for the ligand in the extracellular space. After the process has been repeated, the displacement curve is determined from the binding values for different concentrations of the test substance and the IC50 is determined.

thromboxane synthetase = target: T2, thromboxane synthetase (Homo sapiens, UniProt P24557); experiment: Inhibitory effect on thromboxane synthetase (TXB2 formation in human platelet suspension); assay type: cell-based; conditions: 10 minutes at ambient temperature, then 14C-labelled arachidonic acid 10 minutes, read-out: Inhibition of thromboxane synthetase IC50
T2 construct: endogenous in cells; host or cells: human platelets (platelet-rich plasma passed through Sepharose 2B)
T2 sequence (P24557 1-533): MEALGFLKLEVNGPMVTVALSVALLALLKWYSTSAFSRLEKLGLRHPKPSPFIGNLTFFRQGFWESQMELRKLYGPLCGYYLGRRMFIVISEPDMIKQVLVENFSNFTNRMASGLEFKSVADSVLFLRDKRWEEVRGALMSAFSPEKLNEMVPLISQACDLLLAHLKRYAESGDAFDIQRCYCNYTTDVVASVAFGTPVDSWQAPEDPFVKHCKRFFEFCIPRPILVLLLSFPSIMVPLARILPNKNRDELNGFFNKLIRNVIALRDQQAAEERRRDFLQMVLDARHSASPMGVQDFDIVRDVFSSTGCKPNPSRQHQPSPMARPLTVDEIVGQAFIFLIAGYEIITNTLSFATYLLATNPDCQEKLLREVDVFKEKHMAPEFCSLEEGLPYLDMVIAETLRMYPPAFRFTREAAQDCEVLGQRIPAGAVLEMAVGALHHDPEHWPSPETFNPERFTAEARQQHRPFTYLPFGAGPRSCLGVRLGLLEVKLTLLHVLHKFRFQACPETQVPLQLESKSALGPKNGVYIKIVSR
Method: Determining the Inhibitory Effect on Thromboxane Synthetase
Venous human blood is anti-coagulated with 13 mM Na3 citrate and centrifuged for 10 minutes at 170×g. The supernatant platelet-rich plasma is passed through a Sepharose 2B column in order to remove the plasma proteins. Aliquots of the platelet suspension obtained are incubated with the test substance or with a solvent as control for 10 minutes at ambient temperature and after the addition of ^14 C-labelled arachidonic acid incubation is continued for a further 10 minutes. After this has been stopped with 50 μl of citric acid, extraction is carried out 3 times with 500 μl of ethyl acetate and the combined extracts are distilled off with nitrogen. The residue is taken up in ethyl acetate, placed on TLC film and separated with chloro-form:methanol:glacial acetic acid:water (90:8:1:0.8, v/v/v/v). The dried TLC films are placed on X-ray film for 3 days, the autoradiograms were developed and the active zones were marked on the film using the autoradiograms. After cutting out, the activity is measured in a scintillation counter and the inhibition of the formation of TXB2 is calculated. The IC50 is determined by linear interpolation.

thrombocyte aggregation = experiment: Antithrombotic activity: collagen-induced aggregation in platelet-rich plasma (Born and Cross); assay type: cell-based; conditions: Homo sapiens, 10 min; platelet-rich plasma from healthy volunteers; incubated 10 minutes at 37° C.; 50% change in optical density; read-out: Inhibition of collagen-induced aggregation EC50
Method: The thrombocyte aggregation is measured using the method of Born and Cross (J. Physiol. 170, 397 (1964)) in platelet-rich plasma taken from healthy volunteers. To inhibit coagulation, the blood is mixed with 3.14% strength sodium citrate in a ratio by volume of 1:10.
Collagen-induced Aggregation
The pattern of decrease in the optical density of the platelet suspension is photometrically measured and recorded after the addition of the aggregation-triggering substance. The rate of aggregation is concluded from the angle of inclination of the density curve. The point on the curve where there is greatest light transmittance is used to calculate the "optical density".
The quantity of collagen used is as little as possible but sufficient to produce an irreversible reaction curve. Standard commercial collagen produced by Hormonchemie of Munich is used. Before the addition of the collagen the plasma is incubated for 10 minutes with the substance at 37° C.
From the measurements obtained an EC50 is determined by plotting a graph, and indicates a 50% change in the "optical density" in terms of the inhibition of aggregation.

SMILES	IC50 (Thromboxane)	IC50 (thromboxane synthetase)	EC50 (thrombocyte aggregation)
CC(C)CNC(Nc1cccc(/C(=C\CCCC(=O)O)c2cccnc2)c1)=C(C#N)C#N [J, 5E-6-(3-(2,2-dicyano-1-(2-methylpropylamino)ethyleneamino)phenyl)-6-(3-pyridyl)hex-5-enoic acid]	2 nM	30 nM	120 nM
CC(C)(C)NC(=NC#N)Nc1cccc(C(CCCCC(=O)O)c2cccnc2)c1 (stereo not drawn) [S, 6-(3-(2-cyano-3-tert.butyl-guanidino)phenyl)-6-(3-pyridyl)hexanoic acid]	120 nM	37 nM	1100 nM
N#CN=C(Nc1cccc(/C(=C\CCCC(=O)O)c2cccnc2)c1)NC1CC1 [A, 5E-6-(3-(2-cyano-3-cyclopropyl-guanidino)phenyl)-6-(3-pyridyl)hex-5-enoicacid]	17 nM	380 nM	–
CC(C)(C)CNC(Nc1cccc(/C(=C\CCCC(=O)O)c2cccnc2)c1)=C(C#N)C#N [N, 5E-6-(3-(2,2-dicyano-1-neopentylaminoethyleneamino)phenyl)-6-(3-pyridyl)hex-5-enoic acid]	3 nM	44 nM	620 nM
CC(C)CNC(=NC#N)Nc1cccc(/C(=C\CCCC(=O)O)c2cccnc2)c1 [F, 5E-6-(3-(2-cyano-3-(2-methylpropyl)guanidino)phenyl)-6-(3-pyridyl)hex-5-enoic acid]	7 nM	30 nM	350 nM
CC(C)(C)NC(Nc1cccc(/C(=C\CCCC(=O)O)c2cccnc2)c1)=C(C#N)C#N [Q, 5E-6-(3-(2,2-dicyano-1-tert.butylaminoethyleneamino)phenyl)-6-(3-pyridyl)hex-5-enoic acid]	50 nM	50 nM	120 nM
CC(C)CCNC(=NC#N)Nc1cccc(/C(=C\CCCC(=O)O)c2cccnc2)c1 [Example I, 5E-6-(3-(2-cyano-3-(3-methylbutyl)guanidino)phenyl)-6-(3-pyridyl)hex-5-enoic acid]	27 nM	3 nM	690 nM
CC(C)CCNC(Nc1cccc(/C(=C\CCCC(=O)O)c2cccnc2)c1)=C(C#N)C#N [L, 5E-6-(3-(2,2-dicyano-1-(3-methylbutylamino)ethyleneamino)phenyl)-6-(3-pyridyl)hex-5-enoic acid]	15 nM	31 nM	1200 nM
CC(C)(C)CNC(=NC#N)Nc1cccc(/C(=C\CCCC(=O)O)c2cccnc2)c1 [G, 5E-6-(3-(2-cyano-3-neopentyl-guanidino)phenyl)-6-(3-pyridyl)hex-5-enoic acid]	22 nM	14 nM	260 nM
N#CC(C#N)=C(Nc1cccc(/C(=C\CCCC(=O)O)c2cccnc2)c1)NC1CCCC1 [M, 5E-6-(3-(2,2-dicyano-1-cyclopentylaminoethyleneamino)-phenyl)-6-(3-pyridyl)hex-5-enoic acid]	1 nM	33 nM	50 nM
CC(C)NC(=NC#N)Nc1cccc(/C(=C\CCCC(=O)O)c2cccnc2)c1 [D, 5E-6-(3-(2-cyano-3-isopropyl-guanidino)phenyl)-6-(3-pyridyl)hex-5-enoic acid]	18 nM	24 nM	–
N#CN=C(Nc1ccc(/C(=C\CCCC(=O)O)c2cccnc2)cc1)NC1CCCCC1 [R, 5E-6-(4-(2-cyano-3-cyclohexyl-guanidino)phenyl)-6-(3-pyridyl)hex-5-enoic acid]	1300 nM	180 nM	31000 nM
CCCCCNC(=NC#N)Nc1cccc(/C(=C\CCCC(=O)O)c2cccnc2)c1 [H, 5E-6-(3-(2-cyano-3-pentyl-guanidino)phenyl)-6-(3-pyridyl)hex-5-enoic acid]	25 nM	5 nM	640 nM
CCCNC(Nc1cccc(/C(=C\CCCC(=O)O)c2cccnc2)c1)=C(C#N)C#N [P, 5E-6-(3-(2,2-dicyano-1-propylamino-ethyleneamino)phenyl)-6-(3-pyridyl)hex-5-enoic acid]	37 nM	40 nM	50 nM
N#CN=C(Nc1cccc(/C(=C\CCCn2cnnn2)c2cccnc2)c1)NC1CCCC1 [Y, 4E-1-(5-(3-(2-cyano-3-cyclopentyl-guanidino)phenyl)-5-(3-pyridyl)-pent-4-enyl)tetrazole]	21 nM	250 nM	1200 nM
CC(C)(C)NC(=NS(=O)(=O)c1ccccc1)Nc1cccc(/C(=C\CCCC(=O)O)c2cccnc2)c1 [Example V, 5E-6-(3-(3-tert.butyl-2-phenylsulphonyl-guanidino)phenyl)-6-(3-pyridyl)hex-5-enoic acid]	55 nM	4 nM	3000 nM
N#CC(C#N)=C(Nc1cccc(/C(=C\CCCC(=O)O)c2cccnc2)c1)NC1CC1 [O, 5E-6-(3-(2,2-dicyano-1-cyclopropylaminoethyleneamino)phenyl)-6-(3-pyridyl)hex-5-enoic acid]	62 nM	65 nM	40 nM
CC(C)CNC(Nc1cccc(/C(=C\CCCC(=O)O)c2cccnc2)c1)=C(C#N)C(N)=O [X, 5E-6-(3-(2-carbamoyl-2-cyano-1-(2-methylpropylamino)-ethyleneamino)phenyl)-6-(3-pyridyl)hex-5-enoic acid]	380 nM	5 nM	31000 nM
CC(C)(C)NC(=NC#N)Nc1cccc(/C(=C\CCCC(=O)O)c2cccnc2)c1 [B, 5E-6-(3-(2-cyano-3-tert.butyl-guanidino)phenyl)-6-(3-pyridyl)hex-5-enoic acid]	11 nM	–	500 nM
CC(C)NC(Nc1cccc(/C(=C\CCCC(=O)O)c2cccnc2)c1)=C(C#N)C#N [K, 5E-6-(3-(2,2-dicyano-1-isopropylaminoethyleneamino)phenyl)-6-(3-pyridyl)hex-5-enoic acid]	2 nM	45 nM	20 nM
CC(C)(C)NC(=NC#N)NCCc1ccc(C(=CCCCC(=O)O)c2cccnc2)cc1 [U, E/Z-6-(4-(2-(2-cyano-3-tert.butyl-guanidino)ethyl)phenyl)-6-(3-pyridyl)hex-5-enoic acid]	50 nM	7 nM	1200 nM
N#CN=C(Nc1cccc(/C(=C\CCCC(=O)O)c2cccnc2)c1)N[C@@H]1C[C@H]2CC[C@@H]1C2 (relative stereo) [E, 5E-6-(3-(2-cyano-3-(exo-norborn-2-yl)guanidino)phenyl)-6-(3-pyridyl)hex-5-enoic acid]	17 nM	4 nM	750 nM
